Here are results for three compounds from US12178981B2, “Drug administration method” (Takeda Pharmaceutical Company Limited, priority 2017, dated 2024).

The test system of data set [1] is BBB. Description: BBB permeation experiment of FITC dextran using rat (Example 6). Conditions: ultrasound exposure using nano-bubble water of Reference Example 1. The method, then: The administration solution (0.4 mL) was injected into the rat tail vein at 1 mL/min using an injection tube and a needle of appropriate sizes (both sterilized disposable products). Using an ultrasound gene transfer apparatus (Sonitron GTS) manufactured by Nepa Gene Co., Ltd., exposure was performed for 60 sec at frequency 1 MHz and ultrasound intensity 2 W/cm^2 (n=3).
• fluorescence wavelength: 520 nm • excitation wavelength: 494 nm • flash number: 6 times

Data set [2] concerns BBB Kit™ (RBT-24H). Briefly: BBB permeation experiment of fluorescein using BBB Kit, two nano-bubble waters (Example 4). Particulars: culture medium A (Reference Example 1) and culture medium B (Reference Example 2); ultrasound exposure at not less than 100 mW/cm^2. The data set is classed as in vitro ADME. The method, then:
(§1) In addition, the fluorescein stock solution and the nano-bubble water prepared in Reference Example 2 were diluted with D-PBS such that the fluorescein concentration was 1 μM and nano-bubble density was 2×10^8 bubbles to prepare a culture solution B (volume: 500 μL) (n=2).
(§2) The permeability coefficient (Papp) was calculated from the measured fluorescein concentration, and the intracerebral transferability of fluorescein (BBB permeability) was calculated.

Experiment in data set [3]: as above
The format is in vitro ADME. Conditions: rat, 2 hr, read-out: permeability coefficient (Papp). The method, then: as §1, §2

For data set [4], the system named is BBB Kit™ (RBT-24H). Briefly: BBB permeation experiment of fluorescein using BBB Kit (Example 1). The data set is classed as in vitro ADME. Particulars: nano-bubble water (PS80); ultrasound exposure at not less than 100 mW/cm^2. The method, then: (§3) Using this D-PBS, fluorescein (fluorescein sodium manufactured by Wako Pure Chemical Industries, Code No. 213-00092) was dissolved to prepare a fluorescein stock solution.
as §2
(§4) • fluorescence wavelength: 520 nm • excitation wavelength: 480 nm • flash number: 6 times

Experiment in data set [5]: as above
Conditions: rat, 2 hr, read-out: permeability coefficient (Papp). The format is in vitro ADME. The method, then:
as §3, §2, §4

For data set [6], the system named is brain tissue. Conditions: ddY mice; nano-bubbles (about 400 nm) and 5-FU in combination; brain tissue exposed to ultrasound; cited from earlier work.
Setting [7] is: control: fluorescein 1 μM in D-PBS without nano-bubble water.

As for “fluorescein isothiocyanate dextran [FITC dextran]”, the “brain transferability compared with the control” value in data set [1] is “promotion of brain transferability”.

As a reminder, the Papp is the rate of passage across a membrane or cell layer, normalised by area and donor concentration. For the compound `O=C1OC2(c3ccc(O)cc3Oc3cc(O)ccc32)c2ccccc21` [fluorescein, fluorescein sodium], the “BBB permeability compared with the control” value in data set [2] and in data set [4] was “clear promotion of BBB permeability” throughout. Also, the Papp at 2 h, 1 μM was 1.79 ×10⁻⁶ cm/s in data set [3] (setting [7]); 11.1 ×10⁻⁶ cm/s in data set [3] (culture medium A (Reference Example 1 nano-bubble water, 2×10^8 bubbles), fluorescein 1 μM, ultrasound 100 mW/cm^2, 1 MHz, 10 sec); 0.574 ×10⁻⁶ cm/s in data set [5] (setting [7]); 11.2 ×10⁻⁶ cm/s in data set [5] (fluorescein 1 μM + nano-bubble water (PS80) 2×10^8 bubbles, ultrasound 100 mW/cm^2, 1 MHz, 10 sec); 10.6 ×10⁻⁶ cm/s in data set [5] (fluorescein 1 μM + nano-bubble water (PS80) 2×10^8 bubbles, ultrasound 250 mW/cm^2, 1 MHz, 10 sec); 12.7 ×10⁻⁶ cm/s in data set [5] (fluorescein 1 μM + nano-bubble water (PS80) 2×10^8 bubbles, ultrasound 500 mW/cm^2, 1 MHz, 10 sec).

Consider `O=c1[nH]cc(F)c(=O)[nH]1` [5-FU, fluorouracil], for which, in data set [6], the “duration for which transfer into the brain was observed” value is on record as “at least 24 hr”.
